Test results published in paper PMC10412865 (Current Research in Toxicology, 2023).
Counter-ions that a name gives are not always drawn. Like-named read-outs stand apart in the source and are kept apart here.

What was measured:
[1] = system: CYP3A4 activity in HepaRG cells; conditions: 48 h
[2] = system: CYP1A2 activity in HepaRG cells; assay: CYP1A2 enzyme activity in differentiated HepaRG monolayers; format: cell-based, human; conditions: HepaRG, 48 h
[3] = humans, estimated average; ref Olsen et al. 2007; cited from earlier work
[4] = target: human recombinant CYP2C19 (Homo sapiens, UniProt P33261); assay: Human recombinant CYP2C19 Supersome inhibition assay; format: biochemical
human recombinant CYP2E1 = human recombinant CYP2E1 (Homo sapiens, UniProt P05181); assay: Human recombinant CYP2E1 Supersome inhibition assay; format: biochemical
human recombinant CYP2B6 = target: T1, human recombinant CYP2B6 (Homo sapiens, UniProt P20813); assay: Human recombinant CYP2B6 Supersome inhibition assay; format: biochemical
T1 sequence (P20813 1-491): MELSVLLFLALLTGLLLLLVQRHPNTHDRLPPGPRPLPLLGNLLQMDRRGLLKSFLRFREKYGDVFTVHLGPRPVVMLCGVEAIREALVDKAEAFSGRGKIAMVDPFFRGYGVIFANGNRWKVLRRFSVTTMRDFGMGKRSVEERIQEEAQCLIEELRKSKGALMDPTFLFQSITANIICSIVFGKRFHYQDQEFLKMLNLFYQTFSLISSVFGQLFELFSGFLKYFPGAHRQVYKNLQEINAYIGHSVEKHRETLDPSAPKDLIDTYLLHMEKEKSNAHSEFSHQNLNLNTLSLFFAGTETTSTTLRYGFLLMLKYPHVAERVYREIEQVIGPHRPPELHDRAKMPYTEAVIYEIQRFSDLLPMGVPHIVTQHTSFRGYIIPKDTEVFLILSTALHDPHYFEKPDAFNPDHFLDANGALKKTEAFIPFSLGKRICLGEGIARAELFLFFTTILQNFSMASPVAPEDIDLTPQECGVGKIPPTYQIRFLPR

human recombinant CYP3A4 = human recombinant CYP3A4 (Homo sapiens, UniProt P08684); assay: Human recombinant CYP3A4 Supersome inhibition assay; format: biochemical
human recombinant CYP1A2 = target: T2, human recombinant CYP1A2 (Homo sapiens, UniProt P05177); assay: Human recombinant CYP1A2 Supersome inhibition assay; format: biochemical
T2 sequence (P05177 1-516): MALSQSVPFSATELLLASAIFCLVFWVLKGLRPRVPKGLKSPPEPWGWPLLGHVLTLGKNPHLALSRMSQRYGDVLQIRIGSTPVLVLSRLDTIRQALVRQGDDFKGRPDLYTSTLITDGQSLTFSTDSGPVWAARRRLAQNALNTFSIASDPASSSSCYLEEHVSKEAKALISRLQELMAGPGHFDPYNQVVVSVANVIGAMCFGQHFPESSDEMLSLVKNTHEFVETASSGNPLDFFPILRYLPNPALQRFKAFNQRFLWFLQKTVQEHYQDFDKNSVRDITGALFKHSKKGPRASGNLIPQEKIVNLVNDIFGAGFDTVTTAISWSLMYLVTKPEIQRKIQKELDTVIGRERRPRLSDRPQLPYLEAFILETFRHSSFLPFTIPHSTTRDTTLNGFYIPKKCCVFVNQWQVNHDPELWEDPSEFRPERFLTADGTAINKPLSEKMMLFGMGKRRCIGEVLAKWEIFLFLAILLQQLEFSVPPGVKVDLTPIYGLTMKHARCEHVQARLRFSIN

CYP1A2 = CYP1A2 enzyme activity in differentiated HepaRG monolayers; format: cell-based, human; conditions: human, differentiated HepaRG cell monolayers, probe luciferin-1A2 (6 µM)
[5] = 1 nM PFAS in binary mixture with 10 µM rifampicin
[6] = 1 nM PFAS in binary mixture with 10 µM BaP
[7] = 1 µM PFAS in binary mixture with 10 µM BaP
[8] = 1 µM PFAS in binary mixture with 10 µM rifampicin

Chain of human recombinant CYP2C19 (P33261 whole entry): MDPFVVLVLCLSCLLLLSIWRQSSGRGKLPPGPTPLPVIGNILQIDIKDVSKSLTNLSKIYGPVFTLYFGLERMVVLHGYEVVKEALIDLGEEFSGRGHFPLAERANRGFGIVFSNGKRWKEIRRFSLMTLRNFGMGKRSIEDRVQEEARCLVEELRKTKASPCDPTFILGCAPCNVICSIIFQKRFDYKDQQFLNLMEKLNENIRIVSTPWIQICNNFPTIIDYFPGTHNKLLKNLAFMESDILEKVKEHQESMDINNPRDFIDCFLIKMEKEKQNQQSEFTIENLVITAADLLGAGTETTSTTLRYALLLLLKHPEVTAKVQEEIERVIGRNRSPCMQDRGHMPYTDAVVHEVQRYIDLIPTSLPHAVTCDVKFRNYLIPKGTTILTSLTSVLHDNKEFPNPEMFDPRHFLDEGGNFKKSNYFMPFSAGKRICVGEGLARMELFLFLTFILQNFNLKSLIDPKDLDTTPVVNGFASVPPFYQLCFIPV
Chain of human recombinant CYP3A4 (P08684 whole entry): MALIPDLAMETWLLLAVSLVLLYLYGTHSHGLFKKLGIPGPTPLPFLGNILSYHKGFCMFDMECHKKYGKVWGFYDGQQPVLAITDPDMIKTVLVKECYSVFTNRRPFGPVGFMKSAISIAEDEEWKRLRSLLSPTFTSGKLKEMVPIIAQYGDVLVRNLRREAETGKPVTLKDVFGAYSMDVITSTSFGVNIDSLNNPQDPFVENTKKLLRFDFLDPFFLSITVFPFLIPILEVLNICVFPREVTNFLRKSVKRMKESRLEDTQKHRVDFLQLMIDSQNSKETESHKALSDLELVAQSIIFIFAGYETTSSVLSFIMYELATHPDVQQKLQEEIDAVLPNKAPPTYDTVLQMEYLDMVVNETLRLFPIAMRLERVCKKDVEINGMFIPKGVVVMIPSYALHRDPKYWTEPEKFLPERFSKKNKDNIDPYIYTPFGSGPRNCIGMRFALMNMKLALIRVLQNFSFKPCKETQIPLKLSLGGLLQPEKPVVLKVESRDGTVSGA
Chain of human recombinant CYP2E1 (P05181 whole entry): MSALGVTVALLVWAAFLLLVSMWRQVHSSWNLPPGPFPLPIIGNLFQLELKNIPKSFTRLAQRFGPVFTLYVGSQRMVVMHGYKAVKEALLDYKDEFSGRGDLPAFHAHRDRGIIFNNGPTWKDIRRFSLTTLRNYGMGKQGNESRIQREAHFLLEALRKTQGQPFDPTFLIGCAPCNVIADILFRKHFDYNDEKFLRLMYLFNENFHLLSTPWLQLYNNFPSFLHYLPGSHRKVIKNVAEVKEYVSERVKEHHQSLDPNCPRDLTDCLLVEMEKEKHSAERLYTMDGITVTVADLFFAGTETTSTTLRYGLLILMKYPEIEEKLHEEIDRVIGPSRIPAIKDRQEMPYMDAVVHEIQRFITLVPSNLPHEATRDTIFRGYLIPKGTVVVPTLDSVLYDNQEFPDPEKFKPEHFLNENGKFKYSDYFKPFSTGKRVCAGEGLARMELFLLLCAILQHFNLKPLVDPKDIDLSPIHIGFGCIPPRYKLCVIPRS

| CYP3A4 activity (% of the solvent control) ([1]; 1 nM PFAS alone) | CYP3A4 activity (% of the solvent control) ([1]; 1 µM PFAS alone) | SMILES | CYP3A4 activity (% of the solvent control) [1, 5] | CYP1A2 activity (% of the solvent control) ([2]; 1 nM PFAS alone) | CYP1A2 activity (% of the solvent control) [2, 6] | CYP1A2 activity (% of the solvent control) ([2]; 1 µM PFAS alone) | CYP1A2 activity (% of the solvent control) [2, 7] | half-life of serum elimination [3] [years] | IC50 [4] [µM] | IC50 (human recombinant CYP2E1) [µM] | IC50 (human recombinant CYP2B6) [µM] | IC50 (human recombinant CYP3A4) [µM] | IC50 (human recombinant CYP1A2) [µM] | CYP3A4 activity (% of the solvent control) [1, 8] | activity at 48 h, 1 nM (CYP1A2) [%] | activity at 48 h, 1 µM (CYP1A2) [%] |
| --- | --- | --- | --- | --- | --- | --- | --- | --- | --- | --- | --- | --- | --- | --- | --- | --- |
| – | – | O=S(=O)(O)C(F)(F)C(F)(F)C(F)(F)C(F)(F)F [PFBS, Perfluorobutanesulfonic acid] | concentration-dependent decrease | 205.4% | 130.9% | 204.4% | 128.5% | – | – | – | – | – | – | – | – | – |
| – | – | O=C(O)C(F)(F)C(F)(F)C(F)(F)C(F)(F)C(F)(F)C(F)(F)C(F)(F)F [PFOA, Perfluorooctanoic acid] | – | – | – | – | – | 3.5 | > 100 | > 100 | 96.9 | > 100 | > 100 | – | – | – |
| – | – | O=C(O)C(F)(OC(F)(F)C(F)(F)C(F)(F)F)C(F)(F)F (centres unmarked) [HFPO-DA, Undecafluoro-2-methyl-3-oxahexanoic acid] | did not influence the CYP3A4 activity | neither concentration of HFPO-DA nor PFHxS had a significant effect | decreased activity | neither concentration of HFPO-DA nor PFHxS had a significant effect | decreased activity | – | – | – | – | – | – | did not influence the CYP3A4 activity | – | – |
| – | – | O=S(=O)(O)C(F)(F)C(F)(F)C(F)(F)C(F)(F)C(F)(F)C(F)(F)F [PFHxS, Perfluorohexanesulfonic acid potassium salt] | significantly lower relative to rifampicin alone | no significant differences | – | no significant differences | – | – | 51.6 | > 100 | > 100 | > 100 | 13.8 | significantly lower relative to rifampicin alone | 80.2 | 122 |
| no statistically significant differences | no statistically significant differences | OCCC(F)(F)C(F)(F)C(F)(F)C(F)(F)C(F)(F)C(F)(F)F [6:2 FTOH, 6:2 Fluorotelomer alcohol] | not statistically different from the inducer nor the solvent control | 168.4% | lower | 148.4% | lower | – | – | – | – | – | – | not statistically different from the inducer nor the solvent control | – | – |
| – | – | O=C(O)C(F)(F)C(F)(F)C(F)(F)C(F)(F)C(F)(F)F [PFHxA, Perfluorohexanoic acid] | – | increased CYP1A2 activity | no significant differences | increased CYP1A2 activity | no significant differences | – | – | – | – | – | – | not in those exposed to the higher (1 µM) concentrations | – | – |
